In experiment [1] the target is T1, Insulin receptor (Homo sapiens, UniProt P06213). The experiment can be described thus: Activation of recombinant human insulin receptor using biotin-KSRGDYMTMQIG as substrate after 1 hr by spectrophotometry relative to insulin.
Experiment [2] addresses Insulin receptor (Mus musculus, UniProt P15208). The experiment can be described thus: Agonist activity at B6D2F1 mouse insulin receptor assessed as increase in glucose incorporation into lipid phase after 2 hrs in presence of D-[3-3H]glucose by TopCount microplate scintillation counting method.
Experiment [3] has as its target T1, Insulin receptor. The experiment can be described thus: Displacement of [TyrA14-125I]-human insulin from human insulin receptor isoform A expressed in baby hamster kidney cells after 2 days by gamma counting method. The experiment is classed as cell-based.

Residues, ends and D or L forms follow the SMILES beside them.

T1 sequence (P06213 28-758 limits assumed): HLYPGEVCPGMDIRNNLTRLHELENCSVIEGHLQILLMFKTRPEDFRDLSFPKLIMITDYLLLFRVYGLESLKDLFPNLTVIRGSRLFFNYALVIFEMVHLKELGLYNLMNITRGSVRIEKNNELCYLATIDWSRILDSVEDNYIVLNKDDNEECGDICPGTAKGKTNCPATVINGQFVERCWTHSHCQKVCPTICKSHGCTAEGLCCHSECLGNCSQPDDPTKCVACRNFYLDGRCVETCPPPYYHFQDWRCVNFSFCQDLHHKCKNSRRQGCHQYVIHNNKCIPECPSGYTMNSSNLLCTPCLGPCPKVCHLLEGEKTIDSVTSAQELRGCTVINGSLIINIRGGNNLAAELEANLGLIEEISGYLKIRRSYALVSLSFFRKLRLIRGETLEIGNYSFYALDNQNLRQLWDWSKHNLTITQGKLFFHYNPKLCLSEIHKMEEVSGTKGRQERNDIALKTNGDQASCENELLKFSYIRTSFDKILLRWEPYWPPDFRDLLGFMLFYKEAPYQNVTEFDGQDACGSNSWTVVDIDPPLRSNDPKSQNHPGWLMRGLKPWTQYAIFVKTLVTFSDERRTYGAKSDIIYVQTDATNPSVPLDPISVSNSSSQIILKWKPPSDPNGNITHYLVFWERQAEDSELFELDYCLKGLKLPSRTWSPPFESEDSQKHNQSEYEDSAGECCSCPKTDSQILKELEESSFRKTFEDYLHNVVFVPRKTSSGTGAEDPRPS
T1 sequence (P06213 763-1382 limits assumed): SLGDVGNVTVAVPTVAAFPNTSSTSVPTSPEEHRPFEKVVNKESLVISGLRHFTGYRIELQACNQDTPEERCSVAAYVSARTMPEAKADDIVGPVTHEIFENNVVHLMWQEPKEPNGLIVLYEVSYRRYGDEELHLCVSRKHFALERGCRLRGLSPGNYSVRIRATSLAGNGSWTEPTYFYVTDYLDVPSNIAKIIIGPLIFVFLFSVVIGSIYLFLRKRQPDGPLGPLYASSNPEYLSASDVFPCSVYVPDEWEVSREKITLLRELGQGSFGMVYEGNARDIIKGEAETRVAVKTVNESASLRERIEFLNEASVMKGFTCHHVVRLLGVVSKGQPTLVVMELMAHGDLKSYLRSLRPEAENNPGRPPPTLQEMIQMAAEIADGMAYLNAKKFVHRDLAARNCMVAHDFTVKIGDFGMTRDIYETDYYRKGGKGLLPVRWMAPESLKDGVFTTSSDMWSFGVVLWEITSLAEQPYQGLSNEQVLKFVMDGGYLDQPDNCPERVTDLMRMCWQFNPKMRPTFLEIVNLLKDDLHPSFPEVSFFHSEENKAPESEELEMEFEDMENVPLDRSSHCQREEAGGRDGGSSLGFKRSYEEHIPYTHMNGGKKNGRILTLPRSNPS
Chain of Insulin receptor (Mus musculus, UniProt P15208) (P15208 28-748 limits assumed): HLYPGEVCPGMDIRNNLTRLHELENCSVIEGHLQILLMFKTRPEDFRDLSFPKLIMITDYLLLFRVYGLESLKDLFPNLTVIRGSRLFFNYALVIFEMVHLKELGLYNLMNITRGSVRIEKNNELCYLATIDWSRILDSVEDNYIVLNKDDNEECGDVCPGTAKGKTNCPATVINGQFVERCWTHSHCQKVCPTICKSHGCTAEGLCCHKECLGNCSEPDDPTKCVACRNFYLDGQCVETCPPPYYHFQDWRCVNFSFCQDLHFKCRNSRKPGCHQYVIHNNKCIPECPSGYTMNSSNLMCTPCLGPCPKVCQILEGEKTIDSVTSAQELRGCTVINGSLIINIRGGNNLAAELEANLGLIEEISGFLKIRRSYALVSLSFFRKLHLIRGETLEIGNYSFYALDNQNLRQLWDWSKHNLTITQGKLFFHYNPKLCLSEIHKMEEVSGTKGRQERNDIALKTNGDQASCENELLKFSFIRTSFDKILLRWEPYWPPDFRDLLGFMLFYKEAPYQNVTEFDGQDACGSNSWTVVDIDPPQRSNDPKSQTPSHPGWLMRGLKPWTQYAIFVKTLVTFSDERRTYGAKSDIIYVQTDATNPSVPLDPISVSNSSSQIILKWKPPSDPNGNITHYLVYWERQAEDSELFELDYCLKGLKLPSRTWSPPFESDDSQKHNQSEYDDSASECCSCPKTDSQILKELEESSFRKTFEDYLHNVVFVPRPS
Chain of Insulin receptor (Mus musculus, UniProt P15208) (P15208 753-1372 limits assumed): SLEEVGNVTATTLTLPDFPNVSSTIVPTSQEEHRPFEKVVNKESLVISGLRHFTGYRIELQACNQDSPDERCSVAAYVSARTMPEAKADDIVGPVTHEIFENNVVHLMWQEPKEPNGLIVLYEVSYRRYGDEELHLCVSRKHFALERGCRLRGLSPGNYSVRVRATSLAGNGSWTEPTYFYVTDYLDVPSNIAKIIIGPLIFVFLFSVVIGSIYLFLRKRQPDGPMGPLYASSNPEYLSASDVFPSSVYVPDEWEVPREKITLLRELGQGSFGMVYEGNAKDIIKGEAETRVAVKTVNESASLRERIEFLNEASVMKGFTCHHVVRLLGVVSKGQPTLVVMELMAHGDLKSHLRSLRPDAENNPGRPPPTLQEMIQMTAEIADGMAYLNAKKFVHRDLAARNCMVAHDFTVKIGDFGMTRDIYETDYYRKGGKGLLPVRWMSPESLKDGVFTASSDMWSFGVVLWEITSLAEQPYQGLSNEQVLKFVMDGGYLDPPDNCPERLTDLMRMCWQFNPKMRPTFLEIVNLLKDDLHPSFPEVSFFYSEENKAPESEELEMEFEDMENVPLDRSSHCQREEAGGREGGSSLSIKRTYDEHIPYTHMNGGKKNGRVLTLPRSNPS

For the molecule `CC(C)C[C@H](NC(=O)[C@H](CCC(N)=O)NC(=O)[C@H](CCCNC(=N)N)NC(=O)[C@H](CCC(=O)O)NC(=O)[C@H](Cc1ccccc1)NC(=O)[C@H](Cc1c[nH]c2ccccc12)NC(=O)[C@H](CC(=O)O)NC(=O)[C@H](Cc1ccc(O)cc1)NC(=O)[C@H](Cc1ccccc1)NC(=O)[C@H](CO)NC(=O)[C@H](CCC(=O)O)NC(=O)[C@H](CC(=O)O)NC(=O)[C@H](CC(C)C)NC(=O)[C@H](CO)NC(=O)CNC(=O)[C@H](CO)NC(=O)[C@@H]1CCCN1C(=O)[C@H](CS)NC(=O)CNC(=O)[C@H](CCCNC(=N)N)NC(=O)CNC(=O)[C@H](Cc1ccc(O)cc1)NC(=O)[C@@H](NC(=O)[C@H](CCC(=O)O)NC(=O)[C@H](CS)NC(=O)[C@H](CCC(=O)O)NC(=O)[C@@H](NC(=O)[C@H](CCC(N)=O)NC(=O)[C@H](C)NC(=O)[C@H](Cc1c[nH]c2ccccc12)NC(=O)[C@H](CCC(=O)O)NC(=O)[C@H](CCC(=O)O)NC(=O)[C@H](CCC(=O)O)NC(=O)[C@H](CC(C)C)NC(=O)[C@@H](N)CO)C(C)C)C(C)C)C(=O)NCC(=O)O` (H-SLEEEWAQVECEVYGRGCPSGSLDESFYDWFERQLG-OH), the Activity in experiment [1] amounted to 10%. Besides, the 50% effective concentration (EC50) in experiment [2] is 4 nM. In experiment [3], this molecule showed a Kd of 0.02 nM.

The values above are taken from ChEMBL document CHEMBL4219044, “Challenges in the design of insulin and relaxin/insulin-like peptide mimetics” (Bioorg Med Chem, 2018).
